A short description of the data set: gradient 5% acetonitrile 3 min, to 50% in 2 min, to 85% in 15 min, held 3 min, 100 µL/min. The settings on record: column: Zorbax Extend-C18 2.1 x 50 mm; eluents: water / acetonitrile, 0.1% formic acid. An outline of the steps: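 The mobile phases were water and acetonitrile, each with 0.1% formic acid, pumped at 100 μL/min through a Zorbax Extend-C18 column (2.1 × 50 mm, 1.8 μm). Pure standards were injected as mixtures of ~100 molecules and detected by a quadrupole time-of-flight mass spectrometer in positive and negative ionization mode. Retention time came from computationally picked adduct peaks, each inspected by hand.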
Turning to `Cc1ccc(S(=O)(=O)N(C)CC2CCOCC2)cc1F`, the RP-LC retention time worked out at 850 s.

In turn, `CN(C)C(=O)COc1cc(O)c2c(=O)cc(-c3ccccc3)oc2c1` registered an RP-LC retention time of 832 s.

The compound `O=c1ccn(-c2cccc(F)c2)nc1-c1nc(-c2ccc(OCc3ccccc3)cc2)no1` came in with an RP-LC retention time of 1070 s.

`Cc1ccc(NS(=O)(=O)c2cc3n(c2)CCN(C)C3=O)cc1C` showed an RP-LC retention time of 722 s.

`Cc1cccc(-n2c(=O)c3c(cc(C)n3C)n(CC(=O)Nc3ccc(C)c(C)c3)c2=O)c1` had an RP-LC retention time of 912 s.

Take `CCN1C(=O)COc2ccc(-c3noc(Cc4cccc(OC)c4)n3)cc21`: the RP-LC retention time came to 1000 s.

`Cc1ccc(Cn2c(=O)n(CCNC(=O)c3ccco3)c3ncccc32)cc1` registered an RP-LC retention time of 760 s.

Compound `Cc1ccc(NC(=O)N(C)Cc2ccoc2)cc1` gave an RP-LC retention time of 647 s.

Regarding `COC(=O)c1c(C)[nH]c(C(=O)N2CCCC(C(=O)NC3CCCCC3)C2)c1C` (centres undefined), the RP-LC retention time was determined as 759 s.

On to `O=C(CCc1nc(-c2ccc(N3CCCC3)cc2)no1)NCCCN1CCOCC1`, for which the RP-LC retention time amounted to 655 s.

With `CCS(=O)(=O)N1CCC2(CC1)CN(Cc1ccc(OC)cc1)C2=O`, the RP-LC retention time was determined as 745 s.

`Cc1nnc(-c2ccc3ccn(CC(=O)Nc4cccc(C)c4C)c3c2)o1` displayed an RP-LC retention time of 798 s.

Regarding `COc1ccc(CN2C=C(C(=O)OCc3noc(-c4cccc(OC)c4)n3)C(C)=NS2(=O)=O)cc1`, the RP-LC retention time is 1120 s.

Consider `O=C(Nc1cccc(Br)c1)N1CCN(Cc2nc3cccnc3n2-c2ccccc2)CC1`, for which the RP-LC retention time turned out to be 703 s.

As for `CCn1cc(CN2CCC(C(=O)NCC3CCCCC3)CC2)c2cc(OC)ccc21`, the RP-LC retention time is 736 s.

For `Cc1ccccc1C(=O)Nc1ccc2c(c1)Sc1ncccc1C(=O)N2C(C)C`, the RP-LC retention time worked out at 872 s.

For the compound `O=C(c1ccc2ccnc(N3CCN(c4ccc(F)cc4)CC3)c2c1)N1CCC2(CC1)OCCO2`, the RP-LC retention time is 724 s.

Regarding `CCCN1CCN(C(=O)c2csc(N3CCN(c4ccc(OC)cc4)CC3)n2)CC1`, the RP-LC retention time came out at 626 s.

Consider `O=C(Cn1cnc2c(sc3nc(-c4ccccc4)ccc32)c1=O)Nc1ccc(F)cc1F`, for which the RP-LC retention time was determined as 999 s.

`CCCN(CC1CCOC1)C(=O)Nc1cccc(F)c1` (centres undefined) came in with an RP-LC retention time of 684 s.

`CC(C)(C)NC(=O)CCc1c(-c2ccccc2)nc2ccccn12` displayed an RP-LC retention time of 632 s.

The compound `Cc1scc2nc(C(=O)NC(C)C)nc(N(C)C)c12` had an RP-LC retention time of 581 s.

For `O=C(CCC1CCN(c2cc(NC3CC3)ncn2)CC1)NCc1ccc(F)cc1Cl`, the RP-LC retention time came out at 689 s.

On to `CS(=O)(=O)Nc1ccc(C2(C(=O)NCc3cccs3)CCCCC2)cc1`, for which the RP-LC retention time amounted to 851 s.

`Cc1ccc(C)c(CNC(=O)c2nnc(-c3ccc(S(=O)(=O)N(C)C)cc3)o2)c1` showed an RP-LC retention time of 950 s.

As to `O=C(Nc1cnc(-c2cccnc2)nc1)C1CCCC1`, the RP-LC retention time is 654 s.

Turning to `COCCn1ccc2nc(C)c(C(=O)Nc3ccc4c(c3)OCCO4)cc2c1=O`, the RP-LC retention time amounted to 679 s.

The compound `Cc1ccn2c(Nc3ccccc3C)c(-c3ccc(Cl)cc3)nc2c1` displayed an RP-LC retention time of 810 s.

Take `O=C(C1CCN(Cc2cc3ccccc3n2Cc2cccc(F)c2)CC1)N1CCCC1`: the RP-LC retention time was found to be 721 s.

In the case of `O=c1c2sccc2n(Cc2nc(-c3ccc(Cl)c(F)c3)no2)c(=O)n1-c1cccc(F)c1`, the RP-LC retention time stood at 1090 s.

As for `Cc1ccc(NC(=O)CC2COc3ccccc3NC2=O)cc1C` (centres undefined), the RP-LC retention time turned out to be 687 s.

In the case of `COc1ccc(N2C(=O)CCS2(=O)=O)cc1S(=O)(=O)NCCc1c[nH]c2ccccc12`, the RP-LC retention time stood at 792 s.

For the compound `O=C(Nc1ccc2c(c1)OCO2)C1CCCN(c2ncc(-c3ccc(F)cc3)cn2)C1` (centres undefined), the RP-LC retention time is 1060 s.

`COc1cccc(-c2[nH]ncc2CN2CCC3(CC2)CC(O)CCO3)c1` (centres undefined): the RP-LC retention time was 576 s.

`O=C(Cc1csc2nc(-c3cccc(Br)c3)cn12)N1CCN(c2ccccc2)CC1` registered an RP-LC retention time of 1010 s.

With `CCCCC(=O)Nc1ccc2nc(N3CCN(C)CC3)cc(C(=O)O)c2c1`, the RP-LC retention time came out at 571 s.

`CCOC(=O)c1cc(-c2cccc(OC)c2OC)no1`: the RP-LC retention time worked out at 896 s.

`Cc1ccc(C(=O)N2CCOc3ccc(NC(=O)C4CC4)cc3C2)s1`: the RP-LC retention time worked out at 790 s.

On to `Cn1nnc2cc(-c3noc(C4CCCO4)n3)ccc21` (centres undefined), for which the RP-LC retention time came out at 730 s.

The compound `O=C(Nc1ccc(F)c(Cl)c1)C1CCc2nc(N3CCOCC3)ncc2C1` (centres undefined) returned an RP-LC retention time of 855 s.

`O=C(c1ccc(Br)o1)N1CCN(Cc2nnnn2-c2ccc(F)cc2)CC1` came in with an RP-LC retention time of 776 s.

`Cc1ccc(C(=O)N2CCC(C(=O)N3CCCCCCNC(=O)CC3)CC2)s1`: the RP-LC retention time was determined as 668 s.

`O=C(CC1CCOC2(CCN(Cc3ccsc3)CC2)C1)N1CCOCC1` (centres undefined) returned an RP-LC retention time of 570 s.

In turn, `O=C(Nc1ccccn1)C1CCN(S(=O)(=O)c2ccc(-c3noc(C4CC4)n3)cc2)CC1` registered an RP-LC retention time of 843 s.

Turning to `CCc1nc2cc(-c3noc(-c4ccc(C)c(F)c4)n3)ccc2o1`, the RP-LC retention time is 1350 s.

The compound `CC1(C(=O)NC2CCCC2)CN(S(=O)(=O)c2ccccc2)CC(=O)N1c1ccc(F)cc1` (centres undefined) registered an RP-LC retention time of 892 s.

In turn, `Cc1ccc(-n2cc(C(=O)NCc3ccco3)nn2)cc1C` came in with an RP-LC retention time of 854 s.

For `O=C(CCc1nc2cccnc2n1Cc1cccs1)NCCc1c[nH]c2ccccc12`, the RP-LC retention time was 752 s.

Take `CCOC(=O)c1c(C)c(CCC(=O)NCc2ccc(C)o2)n(C)c1C`: the RP-LC retention time was 842 s.

For the compound `O=C(NCCC1=CCCCC1)c1nnc(-c2ccc(S(=O)(=O)N3CCCC3)cc2)o1`, the RP-LC retention time stood at 1050 s.

`CCCNc1cc(N2CCC(CCC(=O)NCCOC)CC2)ncn1` displayed an RP-LC retention time of 590 s.

On to `CCn1c(COc2cccc3cccnc23)nnc1SC(F)F`, for which the RP-LC retention time was 568 s.

Compound `COc1cccc(S(=O)(=O)N2CCC3(CC2)C(OC)CN3c2cccc(F)c2)c1` (centres undefined) had an RP-LC retention time of 1160 s.

In turn, `Cc1ccc(-n2c(N3CCCC(C(=O)NCc4ccc(F)cc4)C3)nc3ccsc3c2=O)cc1` (centres undefined) registered an RP-LC retention time of 919 s.

With `Cc1ccc(-c2noc(CC(=O)NC(C)c3ccc(C)cc3C)n2)cc1` (centres undefined), the RP-LC retention time turned out to be 1080 s.

For `O=C(Nc1cccc(-c2ccc(N3CCOCC3)nn2)c1)Nc1ccc2c(c1)OCCO2`, the RP-LC retention time is 659 s.

`Cc1ncc(Cl)cc1NCc1ccc(C(=O)N[C@@H](CC2CCCC2)C(=O)NC2CC2)s1` returned an RP-LC retention time of 837 s.

For `COc1ccc(S(=O)(=O)N2CCc3c(c(-c4nnc(-c5ccccc5F)o4)nn3C)C2)cc1`, the RP-LC retention time came out at 882 s.

`O=C(Cn1cnc2c(sc3nc(-c4ccccc4)ccc32)c1=O)Nc1cc(F)ccc1F` gave an RP-LC retention time of 1040 s.

Compound `CN1c2cc(F)ccc2C(=O)NC12CCN(C(=O)Cc1ccccc1Cl)CC2` came in with an RP-LC retention time of 783 s.

In the case of `CCN1CCn2cc(S(=O)(=O)N3CCCc4ccccc43)cc2C1=O`, the RP-LC retention time stood at 800 s.

The compound `CC1(C)CC(=O)C2=C(C1)N=C1SCCC(=O)N1C2c1ccc(Cl)cc1` (centres undefined) returned an RP-LC retention time of 877 s.

For `CCc1onc(C)c1C1CCCN1C(=O)Nc1ccc(Cl)cc1` (centres undefined), the RP-LC retention time turned out to be 873 s.

On to `COC(=O)c1cc2c(=O)n(CCN3CCOCC3)ccc2nc1C`, for which the RP-LC retention time turned out to be 560 s.

The compound `COc1ccc(OC)c(NC(=O)N2CCC(n3c(C(F)(F)F)nc4cccnc43)CC2)c1` gave an RP-LC retention time of 895 s.

Compound `CCN1C(=O)CN(C(=O)C2CCCC2)CC12CCOCC2` displayed an RP-LC retention time of 651 s.

For the compound `CCCn1c(=O)c(C)nc2cc(-c3noc(C4CC(=O)N(c5ccccc5)C4)n3)ccc21` (centres undefined), the RP-LC retention time stood at 895 s.

`CCCc1cc(N2CCN(c3ccccn3)CC2)n2nc(C)c(-c3ccccc3)c2n1` registered an RP-LC retention time of 758 s.

As for `Cc1onc(C(=O)N2CCc3c(c(-c4nncn4C)nn3C)C2)c1Cn1cc(Cl)cn1`, the RP-LC retention time worked out at 649 s.

The compound `O=C(NCCc1c[nH]c2ccccc12)c1ccc(N2CCCC2)c(S(=O)(=O)N2CCCC2)c1` displayed an RP-LC retention time of 979 s.

Regarding `COc1c(NC=O)c2c(c([N+](=O)[O-])c1OC)C(=O)OC2`, the RP-LC retention time was 760 s.

`COc1ccccc1/C=C/C(=O)N1CCC(c2cc(N)on2)CC1` returned an RP-LC retention time of 720 s.

`COc1ccc(-c2nc3cccnc3n2C2CCN(C(=O)c3ccco3)C2)cc1` (centres undefined) came in with an RP-LC retention time of 685 s.

Consider `O=C(CSc1nnc(NC(=O)C2CCCCC2)s1)Nc1nccs1`, for which the RP-LC retention time came to 747 s.

The compound `COc1cc(NC(=O)c2[nH]c3cc(C)sc3c2CN2CCOCC2)cc(OC)c1` returned an RP-LC retention time of 718 s.

`Cn1cc(C(=O)N2CCN(c3ccccn3)CC2)c2cccnc21` displayed an RP-LC retention time of 566 s.

For `COc1ccc(-n2ncc3c(=O)n(Cc4nc(-c5ccc(Cl)c(F)c5)no4)cnc32)cc1`, the RP-LC retention time turned out to be 1090 s.

As to `C=Cc1ccc(Cn2nc3c(S(=O)(=O)N4CCc5ccccc5C4)cccn3c2=O)cc1`, the RP-LC retention time is 1050 s.

`CN1C(=O)C2(CCN(C(=O)C3CCCCC3)CC2)c2ccccc21` returned an RP-LC retention time of 899 s.

For the origin of these results see the METLIN SMRT retention time set (Domingo-Almenara et al. 2019).
